Source: patent US7700522B2, “α-Oxygenated or α-thiolated carboxylic acid phenethylamide derivatives” (Syngenta Crop Protection, Inc., priority 2001, dated 2010)

Legend:
Assay type in all cases: in vivo
Phytophthora [1] = experiment: D-2a residual-protective action against Phytophthora on tomato plants; conditions: test D-2a, sprayed 48 hours before infection, untreated plants attack 80-100%, read-out: inhibit fungal infestations
Procedure: (§1) D-2: Action Against Phytophthora on Tomato Plants
(§2) a) Residual-protective Action
(§3) After a cultivation period of 3 weeks, tomato plants are sprayed with a spray mixture (0.02% active ingredient) prepared from a wettable powder formulation of the test compound. After 48 hours, the treated plants are infected with a sporangia suspension of the fungus. Fungus infestation is evaluated after incubation of the infected plants for 5 days at 90-100% relative humidity and +20° C.

Phytophthora [2] = experiment: D-3a residual-protective action against Phytophthora on potato plants; conditions: test D-3a, potato plants (Bintje), sprayed 48 hours before infection, untreated plants attack 80 to 100%, read-out: inhibit fungal infestations
Procedure: (§4) D-3: Action Against Phytophthora on Potato Plants
as §2
(§5) 2-3 week old potato plants (Bintje variety) are sprayed with a spray mixture (0.02% active ingredient) prepared from a wettable powder formulation of the test compound. After 48 hours, the treated plants are infected with a sporangia suspension of the fungus. Fungus infestation is evaluated after incubation of the infected plants for 4 days at 90-100% relative humidity and +20° C.

Phytophthora [3] = experiment: D-3b systemic action against Phytophthora on potato plants; conditions: test D-3b, potato plants (Bintje), soil watering 48 hours before infection, untreated plants attack 80 to 100%, read-out: inhibit fungal infestations
Procedure: as §4
as §5, with “watered” for “sprayed”, “ingredient based on the volume of the soil)” for “ingredient)”, “compound. […]” for “compound.”

Plasmopara viticola [4] = experiment: D-1b residual-curative action against Plasmopara viticola on vines; conditions: test D-1b, vine seedlings, sprayed 24 hours after infection, untreated plants attack 80-100%, read-out: inhibit fungal infestations
Procedure: (§6) D-1: Action Against Plasmopara Viticola on Vines
b) Residual-curative Action
Vine seedlings are infected at the 4- to 5-leaf stage with a sporangia suspension of the fungus. After incubation for 24 hours in a humidity chamber at 95-100% relative humidity and +20° C., the infected plants are dried and sprayed with a spray mixture (0.02% active ingredient) prepared from a wettable powder formulation of the test compound. After the spray coating has dried, the treated plants are placed in the humidity chamber again. Fungus infestation is evaluated 6 days after infection.

Plasmopara viticola [5] = experiment: D-1a residual-protective action against Plasmopara viticola on vines; conditions: test D-1a, vine seedlings, sprayed 24 hours before infection, untreated plants attack 80-100%, read-out: inhibit fungal infestations
Procedure: as §6, §2
Vine seedlings are sprayed at the 4- to 5-leaf stage with a spray mixture (0.02% active ingredient) prepared from a wettable powder formulation of the test compound. After 24 hours, the treated plants are infected with a sporangia suspension of the fungus. Fungus infestation is evaluated after incubation for 6 days at 95-100% relative humidity and +20° C.

Phytophthora [6] = experiment: D-2b systemic action against Phytophthora on tomato plants; conditions: test D-2b, soil watering 96 hours before infection, untreated plants attack 80-100%, read-out: inhibit fungal infestations
Procedure: as §1
as §3, with “watered” for “sprayed”, “ingredient based on the volume of the soil)” for “ingredient)”, “compound. […]” for “compound.”, “96” for “48”, “4” for “5”

Measured: inhibition at 200 ppm

C#CCOc1ccc(CCNC(=O)C(Cc2ccc(Br)cc2)OCC#C)cc1OC (stereo not shown) [Compound E1.15, 3-(4-bromo-phenyl)-N-[2-(3-methoxy-4-prop-2-ynyloxy-phenyl)-ethyl]-2-prop-2-ynyloxy-propionamide]
80 to 100%: all assays above

C#CCOc1ccc(CCNC(=O)C(Cc2ccccc2)OCC#C)cc1OC (stereo not shown) [Compound E1.03, N-[2-(3-methoxy-4-prop-2-ynyloxy-phenyl)-ethyl]-3-phenyl-2-prop-2-ynyloxy-propionamide]
80 to 100%: all assays above

C#CCOc1ccc(CCNC(=O)C(Cc2ccc(F)cc2)OCC#C)cc1OC (stereo not shown) [Compound E1.06, 3-(4-fluoro-phenyl)-N-[2-(3-methoxy-4-prop-2-ynyloxy-phenyl)-ethyl]-2-prop-2-ynyloxy-propionamide]
80 to 100%: Phytophthora [1] | Phytophthora [2] | Phytophthora [3] | Phytophthora [6]

C#CCOc1ccc(CCNC(=O)C(Cc2ccc(CC)cc2)OCC#C)cc1OC (stereo not shown) [Compound E1.22, 3-(4-ethyl-phenyl)-N-[2-(3-methoxy-4-prop-2-ynyloxy-phenyl)-ethyl]-2-prop-2-ynyloxy-propionamide]
80 to 100%: Phytophthora [1] | Plasmopara viticola [4] | Plasmopara viticola [5] | Phytophthora [6]

C#CCOc1ccc(CCNC(=O)C(Cc2ccc(C)cc2)OCC#C)cc1OC (stereo not shown) [Compound E1.18, N-[2-(3-methoxy-4-prop-2-ynyloxy-phenyl)-ethyl]-2-prop-2-ynyloxy-3-p-tolyl-propionamide]
80 to 100%: Plasmopara viticola [4] | Plasmopara viticola [5]

C#CCOc1ccc(CCNC(=O)C(Cc2ccc(Cl)cc2)OCC#C)cc1OC (stereo not shown) [Compound E1.10, 3-(4-chloro-phenyl)-N-[2-(3-methoxy-4-prop-2-ynyloxy-phenyl)-ethyl]-2-prop-2-ynyloxy-propionamide]
80 to 100%: all assays above
